System: 324938-238-R-J1-PDC complex spheroid viability
Assay: Anticancer human tumor 324938-238-R-J1-PDC patient-derived bladder carcinoma cell line growth inhibition
Settings: for IC50: curve of first compound; for viability, T/C: stronger effect = lower value; active means viability on the fitted dose curve at most 10% of control; inactive means the rest
Method in brief: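 Multicellular complex spheroids of tumor cells with human endothelial cells (HUVEC) and mesenchymal stem cells; the LSD1 inhibitor iadademstat was combined with standard-of-care or investigational agents. Top concentration at or near clinical Cmax, half-log dilutions; final DMSO ≤0.25%.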

[1] = second compound 0.1 µM, first compound 0.00316 µM
[2] = second compound 0.1 µM, first compound 0.01 µM
[3] = second compound 0.1 µM, first compound 0.0316 µM
[4] = second compound 0.1 µM, first compound 0.1 µM
[5] = second compound 0.1 µM, first compound 0.316 µM
[6] = second compound 0.1 µM, first compound 1 µM
[7] = second compound 0.316 µM, first compound 0.00316 µM
[8] = second compound 0.316 µM, first compound 0.01 µM
[9] = second compound 0.316 µM, first compound 0.0316 µM
[10] = second compound 0.316 µM, first compound 0.1 µM
[11] = second compound 0.316 µM, first compound 0.316 µM
[12] = second compound 0.316 µM, first compound 1 µM
[13] = second compound 1 µM, first compound 0.00316 µM
[14] = second compound 1 µM, first compound 0.01 µM
[15] = second compound 1 µM, first compound 0.0316 µM
[16] = second compound 1 µM, first compound 0.1 µM
[17] = second compound 1 µM, first compound 0.316 µM
[18] = second compound 1 µM, first compound 1 µM
[19] = second compound 3.16 µM, first compound 0.00316 µM
[20] = second compound 3.16 µM, first compound 0.01 µM
[21] = second compound 3.16 µM, first compound 0.0316 µM
[22] = second compound 3.16 µM, first compound 0.1 µM
[23] = second compound 3.16 µM, first compound 0.316 µM
[24] = second compound 3.16 µM, first compound 1 µM
[25] = second compound 10 µM, first compound 0.00316 µM
[26] = second compound 10 µM, first compound 0.01 µM
[27] = second compound 10 µM, first compound 0.0316 µM
[28] = second compound 10 µM, first compound 0.1 µM
[29] = second compound 10 µM, first compound 0.316 µM
[30] = second compound 10 µM, first compound 1 µM
[31] = second compound 0.1 µM, first compound 0.00949 µM
[32] = second compound 0.1 µM, first compound 0.03 µM
[33] = second compound 0.1 µM, first compound 0.0949 µM
[34] = second compound 0.1 µM, first compound 0.3 µM
[35] = second compound 0.316 µM, first compound 0.00949 µM
[36] = second compound 0.316 µM, first compound 0.03 µM
[37] = second compound 0.316 µM, first compound 0.0949 µM
[38] = second compound 0.316 µM, first compound 0.3 µM
[39] = second compound 1 µM, first compound 0.00949 µM
[40] = second compound 1 µM, first compound 0.03 µM
[41] = second compound 1 µM, first compound 0.0949 µM
[42] = second compound 1 µM, first compound 0.3 µM
[43] = second compound 3.16 µM, first compound 0.00949 µM
[44] = second compound 3.16 µM, first compound 0.03 µM
[45] = second compound 3.16 µM, first compound 0.0949 µM
[46] = second compound 3.16 µM, first compound 0.3 µM
[47] = second compound 10 µM, first compound 0.00949 µM
[48] = second compound 10 µM, first compound 0.03 µM
[49] = second compound 10 µM, first compound 0.0949 µM
[50] = second compound 10 µM, first compound 0.3 µM
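Further: spheroids also contain HUVEC and human MSCs and agents combined with iadademstat; spheroids exposed to agents for 7 days before readout.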

CC1COCCN1c1cc(-c2ccnn2C)c2ccnc(-c3ccn[nH]3)c2n1 (stereo not given) + NC1CC1c1ccc(-c2cccc(O)c2)cc1
15.8 nM: IC50 (second compound 3.16 µM)
12.9 nM: IC50 (second compound 1 µM) | IC50 (second compound 10 µM)
22.9 nM: IC50 (second compound 0.1 µM)
inactive: viability, T/C [1] 90.1% | viability, T/C [2] 73.6% | viability, T/C [3] 40.5% | viability, T/C [4] 20.6% | viability, T/C [5] 14.1% | viability, T/C [6] 12.1% | viability, T/C [7] 74% | viability, T/C [8] 61.5% | viability, T/C [9] 38.1% | viability, T/C [10] 20.6% | viability, T/C [11] 13.3% | viability, T/C [12] 11.6% | viability, T/C [13] 66.7% | viability, T/C [14] 54.7% | viability, T/C [15] 35% | viability, T/C [16] 21.5% | viability, T/C [17] 14.3% | viability, T/C [18] 10.8% | viability, T/C [19] 73.9% | viability, T/C [20] 57% | viability, T/C [21] 39.3% | viability, T/C [22] 22.1% | viability, T/C [23] 14.5% | viability, T/C [24] 12% | viability, T/C [25] 69.6% | viability, T/C [26] 54.1% | viability, T/C [27] 36.4% | viability, T/C [28] 24.2% | viability, T/C [29] 17.9% | viability, T/C [30] 13.7%
17.6 nM: IC50 (second compound 0.316 µM)

CC1COCCN1c1cc(C2(S(C)(=N)=O)CC2)nc(-c2ccnc3[nH]ccc23)n1 (stereo not given) + NC1CC1c1ccc(-c2cccc(O)c2)cc1
294 nM: IC50 (second compound 10 µM)
304 nM: IC50 (second compound 1 µM)
active: viability, T/C (second compound 0.1 µM, first compound 10 µM) 8.83% | viability, T/C (second compound 1 µM, first compound 10 µM) 9.55%
301 nM: IC50 (second compound 0.316 µM)
507 nM: IC50 (second compound 0.1 µM)
inactive: viability, T/C [3] 86.1% | viability, T/C [4] 81.3% | viability, T/C [5] 58.3% | viability, T/C [6] 35.9% | viability, T/C (second compound 0.1 µM, first compound 3.16 µM) 18% | viability, T/C [9] 80.1% | viability, T/C [10] 71% | viability, T/C [11] 46.3% | viability, T/C [12] 30.8% | viability, T/C (second compound 0.316 µM, first compound 3.16 µM) 20.5% | viability, T/C (second compound 0.316 µM, first compound 10 µM) 8.77% | viability, T/C [15] 74.5% | viability, T/C [16] 65.3% | viability, T/C [17] 47.9% | viability, T/C [18] 34.6% | viability, T/C (second compound 1 µM, first compound 3.16 µM) 21.8% | viability, T/C [21] 67.6% | viability, T/C [22] 71.5% | viability, T/C [23] 47.8% | viability, T/C [24] 35.9% | viability, T/C (second compound 3.16 µM, first compound 3.16 µM) 22.2% | viability, T/C (second compound 3.16 µM, first compound 10 µM) 10.4% | viability, T/C [27] 75% | viability, T/C [28] 66.1% | viability, T/C [29] 45.7% | viability, T/C [30] 36.4% | viability, T/C (second compound 10 µM, first compound 3.16 µM) 21.2% | viability, T/C (second compound 10 µM, first compound 10 µM) 12.2%
374 nM: IC50 (second compound 3.16 µM)

CCN(c1cc(-c2ccc(CN3CCOCC3)cc2)cc(C(=O)NCc2c(C)cc(C)[nH]c2=O)c1C)C1CCOCC1 + NC1CC1c1ccc(-c2cccc(O)c2)cc1
> 3000 nM: IC50 (second compound 0.1 µM) | IC50 (second compound 0.316 µM) | IC50 (second compound 1 µM) | IC50 (second compound 3.16 µM) | IC50 (second compound 10 µM)
inactive: viability, T/C [31] 91.3% | viability, T/C [32] 91.9% | viability, T/C [33] 89.8% | viability, T/C [34] 79.1% | viability, T/C (second compound 0.1 µM, first compound 0.949 µM) 89% | viability, T/C (second compound 0.1 µM, first compound 3 µM) 80.1% | viability, T/C [35] 84.4% | viability, T/C [36] 80.1% | viability, T/C [37] 80.3% | viability, T/C [38] 81.6% | viability, T/C (second compound 0.316 µM, first compound 0.949 µM) 85.1% | viability, T/C (second compound 0.316 µM, first compound 3 µM) 79.8% | viability, T/C [39] 74.2% | viability, T/C [40] 77.2% | viability, T/C [41] 72.6% | viability, T/C [42] 72.9% | viability, T/C (second compound 1 µM, first compound 0.949 µM) 76.9% | viability, T/C (second compound 1 µM, first compound 3 µM) 78.6% | viability, T/C [43] 79% | viability, T/C [44] 79.3% | viability, T/C [45] 77.1% | viability, T/C [46] 77.5% | viability, T/C (second compound 3.16 µM, first compound 0.949 µM) 76.6% | viability, T/C (second compound 3.16 µM, first compound 3 µM) 74.2% | viability, T/C [47] 66.4% | viability, T/C [48] 77% | viability, T/C [49] 66.8% | viability, T/C [50] 62.8% | viability, T/C (second compound 10 µM, first compound 0.949 µM) 66.5% | viability, T/C (second compound 10 µM, first compound 3 µM) 68.1%

Nc1ncn(C2CC(O)C(CO)S2)c(=O)n1 (stereo not given) + NC1CC1c1ccc(-c2cccc(O)c2)cc1
16.4 nM: IC50 (second compound 0.1 µM)
inactive: viability, T/C (second compound 0.1 µM, first compound 0.000949 µM) 84.5% | viability, T/C (second compound 0.1 µM, first compound 0.003 µM) 87.4% | viability, T/C [31] 58.1% | viability, T/C [32] 37.9% | viability, T/C [33] 26.6% | viability, T/C [34] 16.9% | viability, T/C (second compound 0.316 µM, first compound 0.000949 µM) 78.1% | viability, T/C (second compound 0.316 µM, first compound 0.003 µM) 70.5% | viability, T/C [35] 54% | viability, T/C [36] 36.9% | viability, T/C [37] 29% | viability, T/C [38] 16% | viability, T/C (second compound 1 µM, first compound 0.000949 µM) 63.4% | viability, T/C (second compound 1 µM, first compound 0.003 µM) 59.2% | viability, T/C [39] 48.4% | viability, T/C [40] 38.1% | viability, T/C [41] 28% | viability, T/C [42] 16.8% | viability, T/C (second compound 3.16 µM, first compound 0.000949 µM) 67.2% | viability, T/C (second compound 3.16 µM, first compound 0.003 µM) 62% | viability, T/C [43] 55.2% | viability, T/C [44] 41.1% | viability, T/C [45] 32.2% | viability, T/C [46] 17.5% | viability, T/C (second compound 10 µM, first compound 0.000949 µM) 62.9% | viability, T/C (second compound 10 µM, first compound 0.003 µM) 57.5% | viability, T/C [47] 48.8% | viability, T/C [48] 42.3% | viability, T/C [49] 29.1% | viability, T/C [50] 25%
9.28 nM: IC50 (second compound 10 µM)
8.37 nM: IC50 (second compound 1 µM)
13.3 nM: IC50 (second compound 0.316 µM)
14.4 nM: IC50 (second compound 3.16 µM)

O=C(C=Cn1cnc(-c2cc(C(F)(F)F)cc(C(F)(F)F)c2)n1)NNc1cnccn1 + NC1CC1c1ccc(-c2cccc(O)c2)cc1
active: viability, T/C [4] 4.16% | viability, T/C [5] 3% | viability, T/C [6] 1.86% | viability, T/C [10] 5.76% | viability, T/C [11] 2.95% | viability, T/C [12] 1.73% | viability, T/C [16] 5.75% | viability, T/C [17] 2.87% | viability, T/C [18] 2.29% | viability, T/C [22] 6% | viability, T/C [23] 2.83% | viability, T/C [24] 2.25% | viability, T/C [29] 5.72% | viability, T/C [30] 2.7%
< 3.16 nM: IC50 (second compound 0.1 µM) | IC50 (second compound 0.316 µM) | IC50 (second compound 1 µM) | IC50 (second compound 3.16 µM) | IC50 (second compound 10 µM)
inactive: viability, T/C [1] 46% | viability, T/C [2] 26.3% | viability, T/C [3] 14.1% | viability, T/C [7] 42.2% | viability, T/C [8] 27% | viability, T/C [9] 14.2% | viability, T/C [13] 36.1% | viability, T/C [14] 25.1% | viability, T/C [15] 13.8% | viability, T/C [19] 38.3% | viability, T/C [20] 27.7% | viability, T/C [21] 15.4% | viability, T/C [25] 42.1% | viability, T/C [26] 30.2% | viability, T/C [27] 20.4% | viability, T/C [28] 11.6%
